Assay type in all cases: cell-based
One assay addresses T1, BRAF V600E (Homo sapiens, UniProt P15056, V600E).
T1 construct: endogenous C-terminal HiBiT fusion tag on BRAF V600E allele; endogenous in cells; host or cells: A375 clone 1F10 (CRISPR-Cas9 knock-in of the HiBiT tag; parental A375 from ATCC)
The assay can be described thus: BRAF HiBiT degradation assay, C-terminal HiBiT-tagged BRAF V600E A375 cells (clone 1F10), Nano-Glo HiBiT Lytic assay. To be noted: for Dmax: A-375. Summed up: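 Luminescence read-out: Nano-Glo HiBiT lytic reagent with LgBiT, 10 min at room temperature. Signal normalised to DMSO-treated tagged cells, with wildtype A375 as background. Cells are endogenously tagged BRAF V600E A375 clone 1F10. Compounds were tested from 1 μM to 0.01 nM; Dmax is observed % degraded at maximal effect.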

The next assay has as its target T2, BRAF G466V (Homo sapiens, UniProt P15056, G466V).
T2 construct: Horizon Discovery (HCT-116 BRAF−/− cells); host or cells: HCT-116 BRAF−/− cells, clone 8, lentiviral transduction
The assay can be described thus: BRAF HiBiT degradation assay, C-terminal HiBiT-tagged BRAF G466V overexpressed in HCT-116 BRAF−/− cells (clone 8), Nano-Glo HiBiT Lytic assay. Summed up: (§1)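 Cells 3,000/well, 24 h at 37 °C; cpds 1 μM–0.01 nM, 11-pt half-log, duplicate, 0.2% DMSO. Readout: HiBiT lytic luminescence, 10 min at RT. Normalized to DMSO-treated tagged cells, with DMSO-treated wild-type HCT-116 as background. DC50 = fitted concentration at Y=50; Obs. Dmax = % degraded at maximal effect.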

In another assay the target is T3, BRAF G469A (Homo sapiens, UniProt P15056, G469A).
T3 construct: Horizon Discovery (HCT-116 BRAF−/− cells); host or cells: HCT-116 BRAF−/− cells, clone 34, lentiviral transduction
The assay can be described thus: BRAF HiBiT degradation assay, C-terminal HiBiT-tagged BRAF G469A overexpressed in HCT-116 BRAF−/− cells (clone 34), Nano-Glo HiBiT Lytic assay. Summed up:
as §1

In a further assay the target is T4, BRAF D594G (Homo sapiens, UniProt P15056, D594G).
T4 construct: Horizon Discovery (HCT-116 BRAF−/− cells); host or cells: HCT-116 BRAF−/− cells, clone 63, lentiviral transduction
Nature of the assay: BRAF HiBiT degradation assay, C-terminal HiBiT-tagged BRAF D594G overexpressed in HCT-116 BRAF−/− cells (clone 63), Nano-Glo HiBiT Lytic assay. Summed up: as §1

Where [1] appears, read: A375 (BRAF V600E, Class 1), DC50 at 50% degradation.
The mark [2] stands for this setting: A375 (BRAF V600E, Class 1), observed Dmax, % protein degraded relative to DMSO control.
The mark [3] stands for this setting: BRAF G466V (Class 3), HCT-116 BRAF−/− cells, DC50 at 50% degradation.
[4] abbreviates: BRAF G466V (Class 3), HCT-116 BRAF−/− cells, observed Dmax relative to DMSO control.
Where [5] appears, read: BRAF G469A (Class 2), HCT-116 BRAF−/− cells, DC50 at 50% degradation.
[6] abbreviates: BRAF G469A (Class 2), HCT-116 BRAF−/− cells, observed Dmax relative to DMSO control.
[7] abbreviates: BRAF D594G (Class 3), HCT-116 BRAF−/− cells, DC50 at 50% degradation.
Setting [8] is: BRAF D594G (Class 3), HCT-116 BRAF−/− cells, observed Dmax relative to DMSO control.
The mark [9] stands for this setting: A375 (BRAF V600E), DC50 at 50%: fitted conc. at Y=50.
Setting [10] is: A375 (BRAF V600E), percentage protein degraded at maximal compound effect relative to DMSO.
Where [11] appears, read: BRAF G466V, DC50 at 50%: fitted conc. at Y=50.
[12] abbreviates: HCT-116, BRAF G466V, percentage protein degraded at maximal compound effect relative to DMSO.
Where [13] appears, read: Class 2, BRAF G469A, DC50 at 50%: fitted conc. at Y=50.
[14] abbreviates: HCT-116, Class 2, BRAF G469A, percentage protein degraded at maximal compound effect relative to DMSO.
Setting [15] is: BRAF D594G, DC50 at 50%: fitted conc. at Y=50.
The mark [16] stands for this setting: HCT-116, BRAF D594G, percentage protein degraded at maximal compound effect relative to DMSO.

T2 sequence (P15056 whole entry G466V): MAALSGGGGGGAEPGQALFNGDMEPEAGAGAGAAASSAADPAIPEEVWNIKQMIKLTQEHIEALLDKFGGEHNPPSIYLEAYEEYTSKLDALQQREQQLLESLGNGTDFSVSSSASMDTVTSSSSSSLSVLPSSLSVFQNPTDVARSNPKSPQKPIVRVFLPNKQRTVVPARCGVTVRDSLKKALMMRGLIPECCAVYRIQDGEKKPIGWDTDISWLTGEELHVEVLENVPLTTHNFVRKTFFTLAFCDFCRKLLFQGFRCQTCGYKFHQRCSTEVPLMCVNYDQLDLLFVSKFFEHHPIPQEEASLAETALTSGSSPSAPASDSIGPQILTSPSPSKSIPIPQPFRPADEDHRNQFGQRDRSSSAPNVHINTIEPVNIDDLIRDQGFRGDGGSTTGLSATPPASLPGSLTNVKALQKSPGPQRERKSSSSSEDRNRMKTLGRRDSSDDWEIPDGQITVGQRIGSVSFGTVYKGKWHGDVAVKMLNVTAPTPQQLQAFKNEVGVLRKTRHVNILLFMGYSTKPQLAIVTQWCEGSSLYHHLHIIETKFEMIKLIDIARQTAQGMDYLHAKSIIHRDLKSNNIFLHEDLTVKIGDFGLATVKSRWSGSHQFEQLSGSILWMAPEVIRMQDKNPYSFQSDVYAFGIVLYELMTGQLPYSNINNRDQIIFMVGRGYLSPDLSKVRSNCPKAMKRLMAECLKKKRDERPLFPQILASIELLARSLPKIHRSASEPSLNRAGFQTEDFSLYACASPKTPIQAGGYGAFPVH
T4 sequence (P15056 whole entry D594G): as the sequence (P15056 whole entry G466V) above, with V466G, D594G counted along it
T3 sequence (P15056 whole entry G469A): as the sequence (P15056 whole entry G466V) above, with V466G, G469A counted along it
T1 sequence (P15056 whole entry V600E, the tested form may be a part): as the sequence (P15056 whole entry G466V) above, with V466G, V600E counted along it

For `O=C1CCC(c2ccc(N3CCC(CN4CCN(c5ccc(-n6cc(-c7cc(Cl)cc(NS(=O)(=O)N8CCCC8)c7F)c(-c7ccncc7)n6)cc5)CC4)CC3)c(F)c2F)C(=O)N1` (racemic) [Compound 385, Rac-N-{5-chloro-3-[1-(4-{4-[(1-{4-[(3R)-2,6-dioxopiperidin-3-yl]-2,3-difluorophenyl}piperidin-4-yl)methyl]piperazin-1-yl}phenyl)-3-(pyridin-4-yl)-1H-pyrazol-4-yl]-2-fluorophenyl}pyrrolidine-1-sulfonamide], the half-maximal degradation concentration (DC50) on BRAF V600E (setting [1]) was 10 to 50 nM; on BRAF G466V (setting [3]), below 10 nM; at BRAF G469A (setting [5]), 50 to 500 nM; at BRAF D594G (setting [7]) it was below 10 nM. The maximal degradation (Dmax) is above 70% at BRAF V600E (setting [2]), above 70% on BRAF G466V (setting [4]), 30 to 70% on BRAF G469A (setting [6]) and 30 to 70% at BRAF D594G (setting [8]).
In the case of `O=C1CCC(c2ccc(N3CCC(CN4CCN(c5ccc(-n6cc(-c7cc(Cl)cc(NS(=O)(=O)N8CC(F)C8)c7F)c(-c7ccncc7)n6)c(F)c5)CC4)CC3)nc2)C(=O)N1` (racemic) [Compound 337, Rac-N-{5-chloro-3-[1-(4-{4-[(1-{5-[(3R)-2,6-dioxopiperidin-3-yl]pyridin-2-yl}piperidin-4-yl)methyl]piperazin-1-yl}-2-fluorophenyl)-3-(pyridin-4-yl)-1H-pyrazol-4-yl]-2-fluorophenyl}-3-fluoroazetidine-1-sulfonamide], the 50% degradation concentration (DC50) is below 10 nM at BRAF V600E (setting [1]), below 10 nM on BRAF G466V (setting [3]), 10 to 50 nM at BRAF G469A (setting [5]) and below 10 nM on BRAF D594G (setting [7]). Moreover, the Dmax on BRAF V600E (setting [2]) was above 70%; on BRAF G466V (setting [4]), above 70%; at BRAF G469A (setting [6]), 30 to 70%; on BRAF D594G (setting [8]), 30 to 70%.
With `O=C1CCN(c2ccc(N3CCC(CN4CCN(c5ccc(-n6cc(-c7cc(Cl)cc(NS(=O)(=O)C8CCCC8)c7F)c(-c7ccncc7)n6)cc5)CC4)CC3)nc2)C(=O)N1` [Compound 388, N-[5-chloro-3-(1-{4-[4-({1-[5-(2,4-dioxo-1,3-diazinan-1-yl)pyridin-2-yl]piperidin-4-yl}methyl)piperazin-1-yl]phenyl}-3-(pyridin-4-yl)-1H-pyrazol-4-yl)-2-fluorophenyl]cyclopentanesulfonamide], the DC50 at BRAF V600E (setting [1]) is below 10 nM; at BRAF G466V (setting [3]), below 10 nM; at BRAF G469A (setting [5]), 10 to 50 nM; on BRAF D594G (setting [7]) it was below 10 nM. The Dmax at BRAF V600E (setting [2]) was above 70%; on BRAF G466V (setting [4]), above 70%; on BRAF G469A (setting [6]), 30 to 70%; on BRAF D594G (setting [8]) it was 30 to 70%.
`CCCS(=O)(=O)Nc1cccc(-c2nc(C)sc2-c2ccnc(Nc3ccc(N4CCN(CC5CCN(c6ccc(C7CCC(=O)NC7=O)cn6)CC5)CC4)cn3)n2)c1F` (racemic) [Compound 62, Rac-N-[3-(5-{2-[(5-{4-[(1-{5-[(3R)-2,6-dioxopiperidin-3-yl]pyridin-2-yl}piperidin-4-yl)methyl]piperazin-1-yl}pyridin-2-yl)amino]pyrimidin-4-yl}-2-methyl-1,3-thiazol-4-yl)-2-fluorophenyl]propane-1-sulfonamide]: the 50% degradation concentration (DC50) at BRAF V600E (setting [9]) was below 10 nM; at BRAF G466V (setting [11]) it was 10 to 50 nM; on BRAF G469A (setting [13]), below 10 nM; on BRAF D594G (setting [15]), above 500 nM. For the same compound, the Dmax on BRAF V600E (setting [10]) was above 70%; on BRAF G466V (setting [12]), 30 to 70%; at BRAF G469A (setting [14]), 30 to 70%; at BRAF D594G (setting [16]), 30 to 70%.
As to `CCCS(=O)(=O)Nc1cccc(-c2nc(C3CCN(C(=O)C4CCN(C(=O)C5CCN(c6ccc(C7CCC(=O)NC7=O)cn6)CC5)CC4)CC3)sc2-c2ccnc(N)n2)c1F` (racemic) [Compound 254, Rac-N-{3-[5-(2-aminopyrimidin-4-yl)-2-{1-[1-(1-{5-[(3R)-2,6-dioxopiperidin-3-yl]pyridin-2-yl}piperidine-4-carbonyl)piperidine-4-carbonyl]piperidin-4-yl}-1,3-thiazol-4-yl]-2-fluorophenyl}propane-1-sulfonamide], the 50% degradation concentration (DC50) is below 10 nM on BRAF V600E (setting [1]), below 10 nM at BRAF G466V (setting [3]), 10 to 50 nM at BRAF G469A (setting [5]) and below 10 nM at BRAF D594G (setting [7]). The Dmax was above 70% at BRAF V600E (setting [2]), above 70% on BRAF G466V (setting [4]), 30 to 70% on BRAF G469A (setting [6]) and 30 to 70% on BRAF D594G (setting [8]).
Consider `CCCS(=O)(=O)Nc1cccc(-c2nc(C(C)(C)C)sc2-c2ccnc(Nc3cccc(C4CCN(CC[C@@H]5CCN(c6ccc(C7CCC(=O)NC7=O)cn6)C5)CC4)c3)n2)c1F` (mixture of isomers) [Compound 75, N-{3-[2-tert-butyl-5-(2-{[3-(1-{2-[(3R)-1-{5-[(3RS)-2,6-dioxopiperidin-3-yl]pyridin-2-yl}pyrrolidin-3-yl]ethyl}piperidin-4-yl)phenyl]amino}pyrimidin-4-yl)-1,3-thiazol-4-yl]-2-fluorophenyl}propane-1-sulfonamide], for which the DC50 on BRAF V600E (setting [9]) is 10 to 50 nM; on BRAF G466V (setting [11]) it was above 500 nM; on BRAF G469A (setting [13]) it was above 500 nM; on BRAF D594G (setting [15]) it was above 500 nM. The Dmax on BRAF V600E (setting [10]) is above 70%; at BRAF G466V (setting [12]), below 30%; at BRAF G469A (setting [14]), below 30%; at BRAF D594G (setting [16]), below 30%.
For `CCCS(=O)(=O)Nc1cccc(-c2nc(C3CCC4(CC3)CN(C(=O)C3CCN(c5ccc6c(c5)C(=O)N(C5CCC(=O)NC5=O)C6=O)CC3)C4)sc2-c2ccnc(N)n2)c1F` (racemic) [Compound 244, Rac-N-{3-[5-(2-aminopyrimidin-4-yl)-2-[2-(1-{2-[(3R)-2,6-dioxopiperidin-3-yl]-1,3-dioxo-2,3-dihydro-1H-isoindol-5-yl}piperidine-4-carbonyl)-2-azaspiro[3.5]nonan-7-yl]-1,3-thiazol-4-yl]-2-fluorophenyl}propane-1-sulfonamide], the half-maximal degradation concentration (DC50) on BRAF V600E (setting [9]) is below 10 nM; on BRAF G466V (setting [11]) it was 10 to 50 nM; at BRAF G469A (setting [13]) it was above 500 nM; at BRAF D594G (setting [15]) it was below 10 nM. For the same compound, the Dmax at BRAF V600E (setting [10]) is above 70%; at BRAF G466V (setting [12]) it was 30 to 70%; at BRAF G469A (setting [14]), below 30%; at BRAF D594G (setting [16]) it was 30 to 70%.
As for `O=C1CC[C@H](c2ccc(N3CCC(CN4CCN(c5ccc(-n6cc(-c7cc(Cl)cc(NS(=O)(=O)N8CCCC8)c7F)c(-c7ccncc7)n6)cc5)CC4)CC3)cc2)C(=O)N1` [Compound 282, N-{5-chloro-3-[1-(4-{4-[(1-{4-[(3R)-2,6-dioxopiperidin-3-yl]phenyl}piperidin-4-yl)methyl]piperazin-1-yl}phenyl)-3-(pyridin-4-yl)-1H-pyrazol-4-yl]-2-fluorophenyl}pyrrolidine-1-sulfonamide], the DC50 at BRAF V600E (setting [1]), on BRAF G466V (setting [3]), at BRAF G469A (setting [5]) and at BRAF D594G (setting [7]) was below 10 nM in each case. Also, the maximal degradation (Dmax) is above 70% at BRAF V600E (setting [2]), above 70% at BRAF G466V (setting [4]), 30 to 70% on BRAF G469A (setting [6]) and 30 to 70% on BRAF D594G (setting [8]).
In the case of `O=C1CC[C@H](c2ccc(N3CCC(CN4CCN(c5ccc(-n6cc(-c7cc(Cl)cc(NS(=O)(=O)N8CCCC8)c7F)c(-c7ccncc7)n6)cn5)CC4)CC3)cc2)C(=O)N1` [Compound 351, N-{5-chloro-3-[1-(6-{4-[(1-{4-[(3R)-2,6-dioxopiperidin-3-yl]phenyl}piperidin-4-yl)methyl]piperazin-1-yl}pyridin-3-yl)-3-(pyridin-4-yl)-1H-pyrazol-4-yl]-2-fluorophenyl}pyrrolidine-1-sulfonamide], the DC50 on BRAF V600E (setting [1]) was below 10 nM; at BRAF G466V (setting [3]), below 10 nM; at BRAF G469A (setting [5]) it was 10 to 50 nM; at BRAF D594G (setting [7]) it was below 10 nM. Also, the Dmax on BRAF V600E (setting [2]) was above 70%; at BRAF G466V (setting [4]) it was above 70%; at BRAF G469A (setting [6]), 30 to 70%; on BRAF D594G (setting [8]), 30 to 70%.

Source of the values: patent US20260317324A1, “BIFUNCTIONAL COMPOUNDS FOR DEGRADING BRAF VIA UBIQUITIN PROTEOSOME PATHWAY” (Nurix Therapeutics, Inc., priority 2023, published 2026).
